Publication PMC12040169 (PLOS Biology, 2025)

assay: in vitro; settings: human, hela cells, % viability

Point of comparison: `COCCNc1nc(-c2cccs2)cn2ccnc12` [CBK066408], viability at 28.5 h, 10 µM 99.3%. Against it:
- CCc1cc(Br)ccc1S(=O)(=O)Nc1ccnn1CC [CBK044900] — lower, 92.7%
- Cc1cc(NS(=O)(=O)c2ccc(NC(=O)c3ccc(Br)cc3)cc2)no1 [CBK265371] — lower, 95.6%
- O=C(Nc1cccc(-c2nnn[nH]2)c1)Nc1ccc(Cl)c(Cl)c1 [CBK155454] — lower, 96.3%
- Cc1onc(-c2c(Cl)cccc2Cl)c1C(=O)N(C)C [CBK160437] — lower, 97%
- Cc1nc(S(=O)(=O)CCn2cccn2)n(C2CCCC2)c1C [CBK305138] — lower, 89%
- S=c1nc[nH]cc1-c1ccc(Br)cc1 [CBK005833] — lower, 87.6%
- FC(F)(F)c1ccnc(Sc2cccc(Cl)c2)c1 [CBK115234] — lower, 94.8%
- O=C(O)CCN1C(=O)c2ccc(NC(=O)Cc3cccs3)cc2C1=O [CBK268240] — lower, 95.9%
- COc1cccc(OC)c1OCCNC1CCc2cc(Cl)ccc2C1 (centres unmarked) [CBK013079C] — lower, 88.9%
- Cc1nc(C2CC(O)C2)cc(N2CCC(C(=O)N3CCOCC3)CC2)n1 (centres unmarked) [CBK307675] — higher, 102%
- O=C(Oc1ccccc1)c1cc(S(=O)(=O)N2CCOCC2)c(Cl)cc1Cl [CBK269656] — lower, 83.5%
- O=C(O)CCCCn1c2c(c3ccccc31)CCCC2 [CBK000253] — lower, 98.9%
- O=S(=O)(Nc1ccc2nsnc2c1)c1ccc(F)cc1 [CBK051010] — lower, 90.2%
- O=C(O)c1ccc(N2C(=O)CC(S/C(=N\c3ccccc3)Nc3ccccc3)C2=O)cc1 (centres unmarked) [CBK262191] — higher, 107%
- COc1ccccc1-c1cnc(N)c(NC2CCOCC2)n1 [CBK063853] — higher, 104%
- CCCc1cc(=O)[nH]c(Nc2ccc(OCC)cc2)n1 [CBK288140] — higher, 112%
- CC(C)(C)NC(=O)c1ccc(-n2ccnc2)c(-n2cccc2)c1 [CBK284811] — higher, 103%
- O=C(Nc1ccc2nc(-c3ccc(-c4nc5ccc(NC(=O)c6cccc7ccccc67)cc5[nH]4)cc3)[nH]c2c1)c1cccc2ccccc12 [CBK261160] — higher, 120%
- Cc1cc(OC(=O)C2CCC(CNC(=O)OC(C)(C)C)CC2)c2c3c(c(=O)oc2c1)CCCC3 (centres unmarked) [CBK083590] — higher, 102%
- O=C(O)C1C2CCC(O2)C1C(=O)NCc1ccco1 (centres unmarked) [CBK263675] — lower, 96.8%
- CCCCOc1ccc(-c2nnn(C(C)C(=O)O)n2)cc1 (centres unmarked) [CBK070540] — higher, 103%
- CS(=O)(=O)N(CC(=O)Nc1ccccc1C(=O)N1CCCC1)c1cc(Cl)c(Cl)cc1Cl [CBK268826] — higher, 106%
- Cc1noc(C)c1NC(=O)N(Cc1ccc(-c2ccccc2)cc1)CC1CCNCC1 [CBK056721] — higher, 100%
- COc1cccc(CNc2nccnc2-c2ccsc2)c1OC [CBK037543] — higher, 107%
- O=C1CC(c2ccc(F)cc2)Cc2[nH]c(=O)c(C(=O)O)cc21 (centres unmarked) [CBK287200] — lower, 88.8%
- Cc1ccc(C)c(C(NC(=O)CCCn2ccnc2)c2ccncc2)c1 (centres unmarked) [CBK281476] — lower, 96.1%
- CCC1CCCCN1Cc1nc2c(c(=O)n(C)c(=O)n2C)n1CCOC (centres unmarked) [CBK305912] — higher, 104%
- CC(C)C(=O)N1CCC(Cn2nc(-c3ccccc3)ccc2=O)CC1 [CBK284114] — lower, 83.1%
- CCN(NC(=O)c1cc2cccc(OC)c2o1)c1ccc(C)cc1 [CBK161484] — higher, 106%
- COc1ccc(Cc2c(C)nc3c(C(=O)NCC4CCCO4)cnn3c2C)cc1 (centres unmarked) [CBK162183] — lower, 88.5%
- O=S(=O)(c1ccc(Cl)cc1)N1CCN(c2cc(-c3ccco3)ncn2)CC1 [CBK091161] — higher, 111%
- O=C(CCSc1ccc(Cl)cc1)NCCN1CCOCC1 [CBK269352] — lower, 98.2%
- CN(C)S(=O)(=O)n1cc(/C=C/c2nc(N)nc(-c3ccccc3O)n2)c2ccccc21 [CBK268386] — higher, 119%
- O=C(Nc1ccc(S(=O)(=O)Nc2nccs2)cc1)c1cc(-c2cccnc2)nc2ccc(Cl)cc12 [CBK267721] — higher, 105%
- c1ccc(SCCCN2CCNCC2)cc1 [CBK266067G] — higher, 100%
- Cc1nc2n(n1)C(C(=O)Nc1ccc(C)c(C)c1)CC(=O)N2 (centres unmarked) [CBK288223] — higher, 105%
- O=C(O)CCC(=O)Nc1ccccc1C(=O)O [CBK261325] — lower, 91.1%
- N#Cc1ccsc1NS(=O)(=O)c1ccc(Cl)c(Cl)c1 [CBK034735] — lower, 95%
- COC(=O)c1c(NC(=O)C2CC=CCC2C(=O)O)sc2c1CCC(c1ccccc1)C2 (centres unmarked) [CBK263683] — lower, 94.8%
- CCNC(=O)N1CC2(CCN(CCCC#N)CC2)c2ccccc21 [CBK136970] — higher, 111%
- O=S(=O)(Nc1ccc(-c2nnn[nH]2)cc1)c1c(F)cccc1F [CBK154734] — lower, 92.2%
- Oc1cccc(-c2cn3ccnc3c(NC3CC3)n2)c1 [CBK038076] — higher, 101%
- CC(C)(C)C(=O)NCCN1CCC(O)(c2ccc(F)cc2)CC1 [CBK283262] — lower, 92%
- COc1ccc(OC)c(NC(=O)c2ccc3nccnc3c2)c1 [CBK268997] — higher, 106%
- Cc1ncccc1COC(=O)N1CCC(C(F)(F)F)CC1 [CBK200154] — higher, 102%
- COC1C(O)C(CO)OC1n1ccc(NC(=O)c2ccccc2)nc1=O (centres unmarked) [CBK201212] — lower, 94.8%
- Cc1ccc(S(=O)(=O)Oc2cccc(C(c3c(C)n[nH]c3O)c3c(C)n[nH]c3O)c2)cc1 [CBK265016] — lower, 95.1%
- N#Cc1ccc(-c2cnc(N)c(-c3ccc(NC(=O)CCN4CCCCC4)cc3)n2)cc1 [CBK116418] — lower, 85%
- O=C(O)CC(NCc1ccccc1)C(=O)Nc1cccc(F)c1 (centres unmarked) [CBK266956] — lower, 92.3%
- Cc1cccnc1Nc1ccc(C2CCCCN2Cc2ccc3nccnc3c2)cn1 (centres unmarked) [CBK286133] — lower, 89.8%
- Cc1cc(CNC(=O)N2CCN(CCc3ccccc3)CC2)no1 [CBK158898] — lower, 92.7%
- COc1cc(C(=O)N2CCC3(CC2)CC(=O)c2cc(C)c(C)cc2O3)ccc1C [CBK164202] — higher, 105%
- Cc1cc(C(=O)NCCCC2CCOC2)c2cccc(Cl)c2n1 (centres unmarked) [CBK282550] — lower, 91.7%
- NC(=O)C1CN(C(=O)CN2CCCc3ccccc32)c2ccccc2O1 (centres unmarked) [CBK295163] — lower, 93.4%
- COc1ccc(CCNC2CCN(Cc3ccccc3)CC2c2ccccc2)cc1OC (centres unmarked) [CBK286166] — lower, 92.8%
- O=C(c1cccc2[nH]ccc12)N1CCCC2(CCN(Cc3ccccc3)C2)C1 (centres unmarked) [CBK136887] — lower, 93.5%
- CC(=O)NC1(c2ccc(F)cc2)CCN(C(=O)C2CCC2)CC1 [CBK283492] — higher, 109%
- O=C(O)CCC(=O)N1CC[C@H]2NC(=O)N(c3ccc(F)cc3)C(=O)[C@H]21 [CBK289329] — higher, 103%
- c1ccc2oc(-c3cncc(NCCCN4CCOCC4)n3)cc2c1 [CBK066045] — lower, 92.9%
- c1cncc(-c2cnn(-c3ccc4[nH]ccc4c3)n2)c1 [CBK112820] — lower, 85.7%
- O=C(NC1CCCOC1)C1CCN(Cc2ccccc2Cl)CC1 (centres unmarked) [CBK282520] — higher, 107%
- COc1ccccc1-c1nnc(NC(=O)Cc2cccs2)s1 [CBK287361] — lower, 93.5%
- Cc1ccc(CCC(=O)Nc2nc3c(cc2C#N)CCC3)o1 [CBK306366] — lower, 67.1%
- C[C@H](Cn1nc2c(cc1=O)CCCCC2)NC(=O)C1CCCC1 [CBK284546] — lower, 83.2%
- COc1cc(CNc2nc[nH]n2)ccc1OCc1ccc(C)cc1 [CBK269768] — higher, 113%
- COc1cc(/C=C/C(=O)O)cc(S(=O)(=O)N2CCOCC2)c1OC [CBK264078] — higher, 117%
- CCN(CC)C(=O)c1ccc(N)cc1C [CBK022686C] — lower, 93.5%
- COc1cc(/C=C2\NC(=O)N(Cc3ccc([N+](=O)[O-])cc3)C2=O)ccc1OC(C)C(=O)O (centres unmarked) [CBK265348] — higher, 107%
- O=c1[nH]c2ncc(-c3ccsc3)nc2n1C1CCCCC1 [CBK064574] — lower, 92.6%
- CCN(CC)CCN(C(=O)c1cnn(C)c1C)C1CCS(=O)(=O)C1 (centres unmarked) [CBK305321] — lower, 89.1%
- N=C(N)Nc1nc(-c2ccccc2)c2cc(F)ccc2n1 [CBK267350] — lower, 82.7%
- CC(C)(CNS(=O)(=O)c1ccc(Cl)cc1)OCc1ccccc1 [CBK262088] — lower, 91.4%
- CCOc1ccc(C(=O)Nc2ccc(Cc3ccncc3)cc2)cc1[N+](=O)[O-] [CBK262867] — higher, 114%
- O=C1N=C(NC2CCCCCC2)SC1C(=O)N1CCCCCC1 (centres unmarked) [CBK085513] — lower, 93.1%
- CCC(=O)Nc1ccc(-c2csc(N3CCC(C)CC3)n2)cc1 [CBK306490] — higher, 111%
- Cc1nn(C)cc1-c1cncn1CCn1nc(C)c(C)c1C [CBK281785] — higher, 108%
- COc1ccc2[nH]c3c(c2c1)CCNC31CCN(CCSc2ccccc2)C1 (centres unmarked) [CBK084541T] — lower, 92%
- CN(C)C(=O)CN1CCC2(C/C=C/COc3ccccc3C(=O)NC[C@@H](Cc3ccccc3)NC2=O)CC1 [CBK292185] — higher, 107%
- CCCn1c(C)nnc1CN(CC1CCCO1)C1CCCC1 (centres unmarked) [CBK304465] — lower, 94.8%
- O=C1CSC(c2cccnc2)N1CCc1ccccn1 (centres unmarked) [CBK017292] — lower, 96.7%
- Cn1nc(C(F)(F)F)c(C#N)c1Oc1ccc(C(C)(C)C)cc1 [CBK007398] — lower, 95.7%
- COc1cc(/N=C(\N)Nc2nc(=O)cc(CSc3ccc(C)cc3)[nH]2)cc(OC)c1 [CBK265532] — lower, 83.4%
- COCCC(=O)NCC1Cc2cc(F)cc(-c3ccc(C(C)=O)s3)c2O1 (centres unmarked) [CBK306742] — higher, 109%
- Cc1cc(C)n2nc(SCc3nc4sc(C(=O)O)c(C)c4c(=O)[nH]3)nc2n1 [CBK297482] — lower, 88.1%
- Cc1ccc(C(=O)Oc2cccc(NC(=O)c3ccco3)c2)cc1S(=O)(=O)N1CCOCC1 [CBK263211] — lower, 94.1%
- CC(C)[C@@H](CO)Nc1nc(-c2occc2C=O)cnc1N [CBK063733] — higher, 102%
- OCC1CCCN1c1nccnc1-c1cccc(O)c1 (centres unmarked) [CBK089052] — higher, 109%

same assay, conditions: human, hela cells, % viability, bulk resorufin, single well

For `O=C1NC(=O)N(c2ccc3c(c2)OCO3)C(=O)/C1=C/c1ccc(OCc2cccc(C(=O)O)c2)cc1` [CBK263805], the viability at 28.5 h, 10 µM was 106%.
